Activity calls are given as the source filed them. No cut-off for these calls is given here.

The target in assay [1] is T1, Acetylcholinesterase (Mus musculus) (UniProt P21836).
T1 sequence (whole entry): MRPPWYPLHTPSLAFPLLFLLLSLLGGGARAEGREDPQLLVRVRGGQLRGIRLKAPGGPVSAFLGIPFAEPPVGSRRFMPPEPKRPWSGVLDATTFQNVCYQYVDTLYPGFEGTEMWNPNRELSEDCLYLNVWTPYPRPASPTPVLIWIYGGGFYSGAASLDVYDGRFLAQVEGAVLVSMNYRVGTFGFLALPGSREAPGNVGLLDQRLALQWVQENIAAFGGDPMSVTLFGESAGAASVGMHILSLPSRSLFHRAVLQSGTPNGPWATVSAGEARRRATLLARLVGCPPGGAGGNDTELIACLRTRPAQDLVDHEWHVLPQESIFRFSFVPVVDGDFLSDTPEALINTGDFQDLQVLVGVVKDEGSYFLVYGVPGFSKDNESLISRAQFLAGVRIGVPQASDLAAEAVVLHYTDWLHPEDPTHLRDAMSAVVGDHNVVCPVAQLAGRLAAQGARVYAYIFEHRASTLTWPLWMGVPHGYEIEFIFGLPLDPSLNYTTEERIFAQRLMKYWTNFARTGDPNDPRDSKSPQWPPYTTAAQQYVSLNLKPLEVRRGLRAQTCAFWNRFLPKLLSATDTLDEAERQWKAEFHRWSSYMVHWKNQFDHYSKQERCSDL
Nature of the assay: Reactivation of TEPP inhibited AChE in mouse brain at 150 uM. The assay is classed as functional, tissue-based.

Assay [2] addresses T1, Acetylcholinesterase (Mus musculus). Briefly: Reactivation of TEPP inhibited AChE in mouse brain at 250 uM. Type of assay: functional, tissue-based.
The target is the same in assay [3]. Briefly: Reactivation of TEPP inhibited AChE in mouse brain at 200 uM. Type of assay: functional, tissue-based.
Assay [4] has the same target. Nature of the assay: Reactivation of TEPP inhibited AChE in mouse brain at 100 uM. Type of assay: functional, tissue-based. Also noted: scale not given: the % may be the effect or the level left.
Assay [5] shares this target. Briefly: Reactivation of TEPP inhibited AChE in mouse brain at 300 uM. Type of assay: functional, tissue-based.
Assay [6] has the same target. Briefly: Reactivation of TEPP inhibited AChE in mouse brain at 50 uM. Type of assay: functional, tissue-based.
The target is the same in assay [7]. Nature of the assay: Reactivation of TEPP inhibited mouse brain AChE at 30 uM. The assay is classed as functional. Also noted: scale not given: the % may be the effect or the level left.
The target is the same in assay [8]. Briefly: Potentiation of inhibition of AChE by TEPP in mouse brain at 300 uM. Type of assay: functional, tissue-based.
For assay [9] the target is unchanged. Briefly: Potentiation of inhibition of AChE by TEPP in mouse brain at 100 uM. Type of assay: functional, tissue-based.

Turning to `NC(=O)c1cc[n+](CCCCCCCC[n+]2ccc(/C=N/O)cc2)cc1`, the outcome in [1], in assay [2], in assay [3], in assay [4], in assay [5] and in [6] was inactive.
Compound `NC(=O)c1cc[n+](CCCCCCC[n+]2ccc(/C=N/O)cc2)cc1` yielded an Activity in assay [7] of 15%. The outcome in [8] and in assay [9] was Active.
For `NC(=O)c1cc[n+](CCCCCCCCC[n+]2ccc(/C=N/O)cc2)cc1`, the outcome in [1], in assay [2], in [3], in assay [4], in assay [5] and in assay [6] was inactive.
Regarding `NC(=O)c1ccc[n+](CCCCCCCC[n+]2ccc(/C=N/O)cc2)c1`, the result in [1], in assay [2], in assay [3], in assay [4], in assay [5] and in assay [6] was inactive.
On to `O/N=C/c1cc[n+](CCCCCCC[n+]2ccc(/C=N/O)cc2)cc1`, for which the figures for the Activity in [4] and in [7] were 14% and 39%, respectively. Moreover, the outcome in assay [8] was Active.
Turning to `NC(=O)c1ccc[n+](CCCCCCCCC[n+]2ccc(/C=N/O)cc2)c1`, the result in assay [1], in [2], in assay [3], in assay [4], in [5] and in assay [6] was inactive.
As to `O/N=C/c1cc[n+](CCCCCCCC[n+]2ccc(/C=N/O)cc2)cc1`, the result in assay [1], in [2], in assay [3], in [4], in [5] and in assay [6] was inactive.
Compound `NC(=O)c1ccc[n+](CCCCCCC[n+]2ccc(/C=N/O)cc2)c1` showed an Activity in assay [7] of 23%. Also, the outcome in [8] and in assay [9] was Active.
For the compound `O/N=C/c1cc[n+](CCCCCCCCC[n+]2ccc(/C=N/O)cc2)cc1`, the outcome in [1], in assay [2], in assay [3], in [4], in assay [5] and in [6] was inactive.

(Values after ChEMBL document CHEMBL1146945, “Quaternary salts of 4,3' and 4,4' bis-pyridinium monooximes. Part 2: synthesis and biological activity” (Bioorg Med Chem Lett, 2006).)
